Experimental data from PMC10408569, “Recruitment of hexahydroquinoline as anticancer scaffold targeting inhibition of wild and mutants EGFR (EGFR^WT, EGFR^T790M, and EGFR^L858R)” (Journal of Enzyme Inhibition and Medicinal Chemistry, 2023).

Columns and labels:
Assay in all cases: NCI-60 anticancer screening (SRB)
Format in all cases: cell-based
[1] = system: CCRF-CEM; details: Homo sapiens; for inhibition at 10 µM: leukemia, one dose 10 μM, read-out: Growth Inhibition Percentage (GI %)
[2] = system: RPMI-8226; details: Homo sapiens; for inhibition at 10 µM: RPMI-8226, leukemia, one dose 10 μM, read-out: Growth Inhibition Percentage (GI %)
[3] = system: SR; details: Homo sapiens; for inhibition at 10 µM: leukemia, one dose 10 μM, read-out: Growth Inhibition Percentage (GI %)
[4] = system: A549/ATCC; details: Homo sapiens; for inhibition at 10 µM: A549/ATCC, NSC lung cancer, one dose 10 μM, read-out: Growth Inhibition Percentage (GI %)
[5] = system: EKVX; details: Homo sapiens; for inhibition at 10 µM: NSC lung cancer, one dose 10 μM, read-out: Growth Inhibition Percentage (GI %)
[6] = system: HOP-92; details: Homo sapiens; for inhibition at 10 µM: HOP-92, NSC lung cancer, one dose 10 μM, read-out: Growth Inhibition Percentage (GI %)
[7] = system: NCI-H226; details: Homo sapiens; for inhibition at 10 µM: NCI-H226, NSC lung cancer, one dose 10 μM, read-out: Growth Inhibition Percentage (GI %)
[8] = system: NCI-H322M; details: Homo sapiens; for inhibition at 10 µM: NSC lung cancer, one dose 10 μM, read-out: Growth Inhibition Percentage (GI %)
[9] = system: HCC-2998; details: Homo sapiens; for inhibition at 10 µM: HCC-2998, colon cancer, one dose 10 μM, read-out: Growth Inhibition Percentage (GI %)
[10] = system: KM 12; details: Homo sapiens, KM12; for inhibition at 10 µM: KM 12, colon cancer, one dose 10 μM, read-out: Growth Inhibition Percentage (GI %)
[11] = system: SW-620; details: Homo sapiens; for inhibition at 10 µM: SW-620, colon cancer, one dose 10 μM, read-out: Growth Inhibition Percentage (GI %)
[12] = system: SNB-19; details: Homo sapiens; for inhibition at 10 µM: SNB-19, CNS cancer, one dose 10 μM, read-out: Growth Inhibition Percentage (GI %)
[13] = system: SNB-75; details: Homo sapiens; for inhibition at 10 µM: SNB-75, CNS cancer, one dose 10 μM, read-out: Growth Inhibition Percentage (GI %)
[14] = system: U251; details: Homo sapiens, U-251; for inhibition at 10 µM: U251, CNS cancer, one dose 10 μM, read-out: Growth Inhibition Percentage (GI %)
[15] = system: LOX IMVI; details: Homo sapiens; for inhibition at 10 µM: melanoma, one dose 10 μM, read-out: Growth Inhibition Percentage (GI %)
[16] = system: MALME-3M; details: Homo sapiens; for inhibition at 10 µM: melanoma, one dose 10 μM, read-out: Growth Inhibition Percentage (GI %)
[17] = system: SK-MEL-2; details: Homo sapiens; for inhibition at 10 µM: SK-MEL-2, melanoma, one dose 10 μM, read-out: Growth Inhibition Percentage (GI %)
[18] = system: SK-MEL-28; details: Homo sapiens; for inhibition at 10 µM: SK-MEL-28, melanoma, one dose 10 μM, read-out: Growth Inhibition Percentage (GI %)
[19] = system: SK-MEL-5; details: Homo sapiens; for inhibition at 10 µM: SK-MEL-5, melanoma, one dose 10 μM, read-out: Growth Inhibition Percentage (GI %)
[20] = system: OVCAR-3; details: Homo sapiens; for inhibition at 10 µM: OVCAR-3, ovarian cancer, one dose 10 μM, read-out: Growth Inhibition Percentage (GI %)
[21] = system: OVCAR-4; details: Homo sapiens; for inhibition at 10 µM: OVCAR-4, ovarian cancer, one dose 10 μM, read-out: Growth Inhibition Percentage (GI %)
[22] = system: OVCAR-5; details: Homo sapiens; for inhibition at 10 µM: OVCAR-5, ovarian cancer, one dose 10 μM, read-out: Growth Inhibition Percentage (GI %)
[23] = system: SK-OV-3; details: Homo sapiens; for inhibition at 10 µM: SK-OV-3, ovarian cancer, one dose 10 μM, read-out: Growth Inhibition Percentage (GI %)
[24] = system: 786-0; details: Homo sapiens; for inhibition at 10 µM: 786-0, renal cancer, one dose 10 μM, read-out: Growth Inhibition Percentage (GI %)
[25] = system: A498; details: Homo sapiens; for inhibition at 10 µM: A498, renal cancer, one dose 10 μM, read-out: Growth Inhibition Percentage (GI %)
[26] = system: ACHN; details: Homo sapiens; for inhibition at 10 µM: renal cancer, one dose 10 μM, read-out: Growth Inhibition Percentage (GI %)
[27] = system: CAKI-1; details: Homo sapiens; for inhibition at 10 µM: CAKI-1, renal cancer, one dose 10 μM, read-out: Growth Inhibition Percentage (GI %)
[28] = system: SN 12C; details: Homo sapiens, SN12C; for inhibition at 10 µM: SN 12C, renal cancer, one dose 10 μM, read-out: Growth Inhibition Percentage (GI %)
[29] = system: TK-10; details: Homo sapiens; for inhibition at 10 µM: TK-10, renal cancer, one dose 10 μM, read-out: Growth Inhibition Percentage (GI %)
[30] = system: MDA-MB-231; details: Homo sapiens; for inhibition at 10 µM: MDA-MB-231, breast cancer, one dose 10 μM, read-out: Growth Inhibition Percentage (GI %)
[31] = system: BT-549; details: Homo sapiens; for inhibition at 10 µM: BT-549, breast cancer, one dose 10 μM, read-out: Growth Inhibition Percentage (GI %)
[32] = system: T-47D; details: Homo sapiens, T47D; for inhibition at 10 µM: breast cancer, one dose 10 μM, read-out: Growth Inhibition Percentage (GI %)
[33] = system: MDA-MB-468; details: Homo sapiens; for inhibition at 10 µM: MDA-MB-468, breast cancer, one dose 10 μM, read-out: Growth Inhibition Percentage (GI %)

CCOC(=O)C1=C(N)N(c2ccccc2)C2=C(C(=O)CC(C)(C)C2)C1c1ccc(Cl)cc1Cl (racemic) [10c, (±)-Ethyl 2-amino-4–(2,4-dichlorophenyl)-7,7-dimethyl-5-oxo-1-phenyl-1,4,5,6,7,8-hexahydroquinoline-3-carboxylate]
GI50 ([1]; five doses 0.01-100 µM, 48 h): 3.1 µM
inhibition at 10 µM [1]: 80%
inhibition at 10 µM [2]: 92%
GI50 ([2]; RPMI-8226, five doses 0.01-100 µM, 48 h): 7.07 µM
GI50 ([3]; five doses 0.01-100 µM, 48 h): 1.47 µM
inhibition at 10 µM [3]: 90%
inhibition at 10 µM [4]: 73%
GI50 ([4]; A549, five doses 0.01-100 µM, 48 h): 1.88 µM
inhibition at 10 µM [5]: 81%
GI50 ([5]; five doses 0.01-100 µM, 48 h): 2.62 µM
inhibition at 10 µM [6]: 100%
GI50 ([6]; HOP-92, five doses 0.01-100 µM, 48 h): 3.89 µM
inhibition at 10 µM [7]: 76%
GI50 ([7]; NCI-H226, five doses 0.01-100 µM, 48 h): 2.34 µM
GI50 ([8]; NCI-H322-M, five doses 0.01-100 µM, 48 h): 7.71 µM
inhibition at 10 µM [8]: 43%
inhibition at 10 µM [9]: 62%
GI50 ([9]; HCC-2998, five doses 0.01-100 µM, 48 h): 2.77 µM
inhibition at 10 µM [10]: 81%
GI50 ([10]; KM-12, five doses 0.01-100 µM, 48 h): 2.36 µM
inhibition at 10 µM [11]: < 10%
GI50 ([11]; SW-620, five doses 0.01-100 µM, 48 h): 2.9 µM
inhibition at 10 µM [12]: 72%
GI50 ([12]; SNB-19, five doses 0.01-100 µM, 48 h): 2.92 µM
inhibition at 10 µM [13]: 59%
GI50 ([13]; SNB-75, five doses 0.01-100 µM, 48 h): 5.33 µM
inhibition at 10 µM [14]: 72%
GI50 ([14]; U251, five doses 0.01-100 µM, 48 h): 2.46 µM
GI50 ([15]; five doses 0.01-100 µM, 48 h): 3.24 µM
inhibition at 10 µM [15]: < 10%
GI50 ([16]; five doses 0.01-100 µM, 48 h): 2.93 µM
inhibition at 10 µM [16]: 72%
inhibition at 10 µM [17]: 112%
GI50 ([17]; SK-MEL-2, five doses 0.01-100 µM, 48 h): 1.7 µM
inhibition at 10 µM [18]: 49%
GI50 ([18]; SK-MEL-28, five doses 0.01-100 µM, 48 h): 6.67 µM
inhibition at 10 µM [19]: 102%
GI50 ([19]; SK-MEL-5, five doses 0.01-100 µM, 48 h): 1.24 µM
inhibition at 10 µM [20]: 67%
GI50 ([20]; OVCAR-3, five doses 0.01-100 µM, 48 h): 2.62 µM
inhibition at 10 µM [21]: 75%
GI50 ([21]; OVCAR-4, five doses 0.01-100 µM, 48 h): 2.83 µM
inhibition at 10 µM [22]: 43%
GI50 ([22]; OVCAR-5, five doses 0.01-100 µM, 48 h): 7.26 µM
inhibition at 10 µM [23]: 66%
GI50 ([23]; SK-OV-3, five doses 0.01-100 µM, 48 h): 3.35 µM
inhibition at 10 µM [24]: 66%
GI50 ([24]; 786-0, five doses 0.01-100 µM, 48 h): 4.24 µM
inhibition at 10 µM [25]: 53%
GI50 ([25]; A498, five doses 0.01-100 µM, 48 h): 4.54 µM
GI50 ([26]; five doses 0.01-100 µM, 48 h): 1.83 µM
inhibition at 10 µM [26]: 83%
inhibition at 10 µM [27]: 77%
GI50 ([27]; CAKI-1, five doses 0.01-100 µM, 48 h): 6.82 µM
inhibition at 10 µM [28]: 79%
GI50 ([28]; SN 12 C, five doses 0.01-100 µM, 48 h): 3.08 µM
inhibition at 10 µM [29]: 63%
GI50 ([29]; TK-10, five doses 0.01-100 µM, 48 h): 5.63 µM
inhibition at 10 µM [30]: 75%
GI50 ([30]; MDA-MB-231, five doses 0.01-100 µM, 48 h): 3.34 µM
inhibition at 10 µM [31]: 67%
GI50 ([31]; BT-549, five doses 0.01-100 µM, 48 h): 4.58 µM
inhibition at 10 µM [32]: 79%
GI50 ([32]; five doses 0.01-100 µM, 48 h): 1.04 µM
inhibition at 10 µM [33]: 96%
GI50 ([33]; MDA-MB-468, five doses 0.01-100 µM, 48 h): 6.83 µM

CCOC(=O)C1=C(N)N(c2ccccc2)C2=C(C(=O)CC(C)(C)C2)C1c1ccccc1Cl (racemic) [6a, (±)-Ethyl 2-amino-4–(2-chlorophenyl)-7,7-dimethyl-5-oxo-1-phenyl-1,4,5,6,7,8-hexahydroquinoline-3-carboxylate]
inhibition at 10 µM [1]: 52%
inhibition at 10 µM [2]: 78%
inhibition at 10 µM [3]: 68%
inhibition at 10 µM [4]: 25%
inhibition at 10 µM [5]: 26%
inhibition at 10 µM [6]: 32%
inhibition at 10 µM [7]: 24%
inhibition at 10 µM [8]: 18%
inhibition at 10 µM [9]: 15%
inhibition at 10 µM [10]: 42%
inhibition at 10 µM [11]: 26%
inhibition at 10 µM [12]: 30%
inhibition at 10 µM [13]: 34%
inhibition at 10 µM [14]: 21%
inhibition at 10 µM [15]: 15%
inhibition at 10 µM [16]: 11%
inhibition at 10 µM [17]: 43%
inhibition at 10 µM [18]: 19%
inhibition at 10 µM [19]: 40%
inhibition at 10 µM [20]: 38%
inhibition at 10 µM [21]: 26%
inhibition at 10 µM [22]: 14%
inhibition at 10 µM [23]: < 10%
inhibition at 10 µM [24]: 21%
inhibition at 10 µM [25]: < 10%
inhibition at 10 µM [26]: 31%
inhibition at 10 µM [27]: 54%
inhibition at 10 µM [28]: 25%
inhibition at 10 µM [29]: < 10%
inhibition at 10 µM [30]: 16%
inhibition at 10 µM [31]: 22%
inhibition at 10 µM [32]: 48%
inhibition at 10 µM [33]: 50%

CCOC(=O)C1=C(N)N(c2ccc(Cl)cc2)C2=C(C(=O)CC(C)(C)C2)C1c1ccc(F)cc1 (racemic) [8b, (±)-Ethyl 2-amino-1–(4-chlorophenyl)-4–(4-fluoroyphenyl)-7,7-dimethyl-5-oxo-1,4,5,6,7,8-hexahydroquinoline-3-carboxylate]
inhibition at 10 µM [1]: 26%
inhibition at 10 µM [2]: < 10%
inhibition at 10 µM [3]: < 10%
inhibition at 10 µM [4]: 12%
inhibition at 10 µM [5]: 25%
inhibition at 10 µM [6]: 21%
inhibition at 10 µM [7]: < 10%
inhibition at 10 µM [8]: < 10%
inhibition at 10 µM [9]: < 10%
inhibition at 10 µM [10]: < 10%
inhibition at 10 µM [11]: < 10%
inhibition at 10 µM [12]: 22%
inhibition at 10 µM [13]: < 10%
inhibition at 10 µM [14]: 21%
inhibition at 10 µM [15]: 14%
inhibition at 10 µM [16]: < 10%
inhibition at 10 µM [17]: 20%
inhibition at 10 µM [18]: < 10%
inhibition at 10 µM [19]: 29%
inhibition at 10 µM [20]: < 10%
inhibition at 10 µM [21]: 16%
inhibition at 10 µM [22]: < 10%
inhibition at 10 µM [23]: < 10%
inhibition at 10 µM [24]: 20%
inhibition at 10 µM [25]: < 10%
inhibition at 10 µM [26]: < 10%
inhibition at 10 µM [27]: 26%
inhibition at 10 µM [28]: < 10%
inhibition at 10 µM [29]: < 10%
inhibition at 10 µM [30]: 19%
inhibition at 10 µM [31]: 13%
inhibition at 10 µM [32]: 27%
inhibition at 10 µM [33]: 17%
